# Data: patent US6376426B1, “Herbicidal 3-(heterocycl-1-yl)-uracils” (BASF Aktiengesellschaft, priority 1999, dated 2002)
# Experiments:
# Assay type in all cases: in vivo
# Stellaria media [1] = assay: Post-emergence herbicidal test, STEME; design: key to herbicidal effect (0-9 scale) STEME / herbicidal rating STEME: A rating 0 indicates growth as untreated control; a rating 9 indicates death; conditions: for herbicidal rating STEME: POST, 0-9 scale, 21 days after spraying
# How it was run: (§1)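 Herbicidal effect is recorded on a linear 0-9 scale, where 0 means growth like untreated control and 9 means death, with one unit approximating 10% more effect.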
# Setaria viridis = assay: Post-emergence herbicidal test, SETVI; design: key to herbicidal effect (0-9 scale) SETVI / herbicidal rating SETVI: A rating 0 indicates growth as untreated control; a rating 9 indicates death; conditions: POST, 0-9 scale, 21 days after spraying
# How it was run: as §1
# Galium aparine = assay: Post-emergence herbicidal test, GALAP; design: key to herbicidal effect (0-9 scale) GALAP / herbicidal rating GALAP: A rating 0 indicates growth as untreated control; a rating 9 indicates death; conditions: for herbicidal rating GALAP: POST, 0-9 scale, 21 days after spraying
# How it was run: as §1
# Matricaria inodora = assay: Post-emergence herbicidal test, MATIN; design: key to herbicidal effect (0-9 scale) MATIN / herbicidal rating MATIN: A rating 0 indicates growth as untreated control; a rating 9 indicates death; conditions: for herbicidal rating MATIN: POST, 0-9 scale, 21 days after spraying
# How it was run: as §1
# Echinochloa crus-galli = assay: Post-emergence herbicidal test, ECHCG; design: key: A rating 0 indicates growth as untreated control; a rating 9 indicates death; conditions: 0-9 scale, 21 days after spraying
# How it was run: as §1
# Stellaria media [2] = assay: Pre-emergence herbicidal test, STEME; design: key to herbicidal effect (0-9 scale) STEME / herbicidal rating STEME: A rating 0 indicates growth as untreated control; a rating 9 indicates death; conditions: for herbicidal rating STEME: PRE, 0-9 scale, 21 days after spraying
compound,measurement,setting,value
"Cn1c(C(F)(F)F)cc(=O)n(-n2ccc3c(Cl)cccc32)c1=O [Example 169, 3-(4-Chloro-indol-1-yl)-1-methyl-6-trifluoromethylpyrimidine-2,4-dione]",herbicidal rating STEME,Stellaria media [1]; 25 g/ha,8
same,herbicidal rating STEME,Stellaria media [1]; 100 g/ha,9
same,herbicidal rating STEME,Stellaria media [1]; 400 g/ha,9
same,control of Stellaria,"Stellaria media [1]; post-emergence, 12.5 g/ha",excellent control
same,herbicidal rating SETVI,Setaria viridis; 25 g/ha,6
same,herbicidal rating SETVI,Setaria viridis; 100 g/ha,9
same,herbicidal rating SETVI,Setaria viridis; 400 g/ha,9
same,herbicidal rating GALAP,Galium aparine; 25 g/ha,9
same,herbicidal rating GALAP,Galium aparine; 100 g/ha,9
same,herbicidal rating GALAP,Galium aparine; 400 g/ha,9
same,control of Galium,"Galium aparine; post-emergence, 12.5 g/ha",excellent control
same,herbicidal rating MATIN,Matricaria inodora; 25 g/ha,8
same,herbicidal rating MATIN,Matricaria inodora; 100 g/ha,9
same,herbicidal rating MATIN,Matricaria inodora; 400 g/ha,9
same,control of Matricaria,"Matricaria inodora; post-emergence, 12.5 g/ha",excellent control
same,herbicidal rating ECHCG,Echinochloa crus-galli; 25 g/ha,5
same,herbicidal rating ECHCG,Echinochloa crus-galli; 100 g/ha,9
same,herbicidal rating ECHCG,Echinochloa crus-galli; 400 g/ha,9
same,herbicidal rating STEME,Stellaria media [2]; 12.5 g/ha,6
same,herbicidal rating STEME,Stellaria media [2]; 25 g/ha,8
same,herbicidal rating STEME,Stellaria media [2]; 100 g/ha,9
same,herbicidal rating STEME,Stellaria media [2]; 400 g/ha,9
same,control of Stellaria,"Stellaria media [2]; pre-emergence, 25 g/ha",good control
